PubChem BioAssay (NCI)
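96-well plates; 48 h exposure; 5 concentrations. Endpoints by linear interpolation between flanking doses. Not reached: highest tested concentration assigned. TGI denotes the concentration required for complete inhibition of growth.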

Key:
Experiment in all cases: NCI-60 cell line screen, 48 h
786-0 renal = system: 786-0 renal
A498 renal = system: A498 renal
A549 NSCLC = system: A549 NSCLC
ACHN renal = system: ACHN renal
BT-549 breast = system: BT-549 breast
CAKI-1 renal = system: CAKI-1 renal
CCRF-CEM leukemia = system: CCRF-CEM leukemia
COLO 205 colon = system: COLO 205 colon
DLD-1 colon = system: DLD-1 colon
DMS 114 small cell lung = system: DMS 114 small cell lung
DU-145 prostate = system: DU-145 prostate
EKVX NSCLC = system: EKVX NSCLC
HCC-2998 colon = system: HCC-2998 colon
HCT-116 colon = system: HCT-116 colon
HCT-15 colon = system: HCT-15 colon
HL-60(TB) leukemia = system: HL-60(TB) leukemia
HOP-18 NSCLC = system: HOP-18 NSCLC
HOP-62 NSCLC = system: HOP-62 NSCLC
HOP-92 NSCLC = system: HOP-92 NSCLC
HS 578T breast = system: HS 578T breast
HT29 colon = system: HT29 colon
IGROV1 ovarian = system: IGROV1 ovarian
K-562 leukemia = system: K-562 leukemia
KM12 colon = system: KM12 colon
KM20L2 colon = system: KM20L2 colon
LOX IMVI melanoma = system: LOX IMVI melanoma
LXFL 529 NSCLC = system: LXFL 529 NSCLC
M14 melanoma = system: M14 melanoma
MALME-3M melanoma = system: MALME-3M melanoma
MCF7 breast = system: MCF7 breast
MDA-MB-231 breast = system: MDA-MB-231 breast
MDA-MB-435 = system: MDA-MB-435
MDA-N = system: MDA-N
MOLT-4 leukemia = system: MOLT-4 leukemia
NCI-H226 lung = system: NCI-H226 lung
NCI-H23 lung = system: NCI-H23 lung
NCI-H460 lung = system: NCI-H460 lung
NCI-H522 lung = system: NCI-H522 lung
NCI/ADR-RES ovarian = system: NCI/ADR-RES ovarian
OVCAR-3 ovarian = system: OVCAR-3 ovarian
OVCAR-4 ovarian = system: OVCAR-4 ovarian
OVCAR-5 ovarian = system: OVCAR-5 ovarian
OVCAR-8 ovarian = system: OVCAR-8 ovarian
PC-3 prostate = system: PC-3 prostate
RPMI-8226 leukemia = system: RPMI-8226 leukemia
RXF 393 renal = system: RXF 393 renal
SF-268 CNS = system: SF-268 CNS
SF-295 CNS = system: SF-295 CNS
SF-539 CNS = system: SF-539 CNS
SK-MEL-2 melanoma = system: SK-MEL-2 melanoma
SK-MEL-28 melanoma = system: SK-MEL-28 melanoma
SK-MEL-5 melanoma = system: SK-MEL-5 melanoma
SK-OV-3 ovarian = system: SK-OV-3 ovarian
SN12C renal = system: SN12C renal
SNB-19 CNS = system: SNB-19 CNS
SNB-75 CNS = system: SNB-75 CNS
SNB-78 CNS = system: SNB-78 CNS
SR leukemia = system: SR leukemia
SW-620 colon = system: SW-620 colon
T-47D breast = system: T-47D breast
TK-10 renal = system: TK-10 renal
U251 CNS = system: U251 CNS
UACC-257 melanoma = system: UACC-257 melanoma
UACC-62 melanoma = system: UACC-62 melanoma
UO-31 renal = system: UO-31 renal
DMS 273 small cell lung = system: DMS 273 small cell lung
M19-MEL melanoma = system: M19-MEL melanoma

CN(C)CCNc1ccc2nnn3c4ccc(O)cc4c(=O)c1c23
TGI (786-0 renal): 15.4 µM | TGI (A498 renal): 12.1 µM | TGI (A549 NSCLC): 13 µM | TGI (ACHN renal): 26.1 µM | TGI (BT-549 breast): 28.5 µM | TGI (CAKI-1 renal): 20 µM | TGI (CCRF-CEM leukemia): 32.9 µM | TGI (COLO 205 colon): 18.2 µM | TGI (DLD-1 colon): 22.7 µM | TGI (DMS 114 small cell lung): 20.9 µM | TGI (DU-145 prostate): 18.6 µM | TGI (EKVX NSCLC): 18.5 µM | TGI (HCC-2998 colon): 19.6 µM | TGI (HCT-116 colon): 13.5 µM | TGI (HCT-15 colon): 13.4 µM | TGI (HL-60(TB) leukemia): 23.6 µM | TGI (HOP-18 NSCLC): 50.5 µM | TGI (HOP-62 NSCLC): 17.2 µM | TGI (HOP-92 NSCLC): 26.5 µM | TGI (HS 578T breast): 11.5 µM | TGI (HT29 colon): 16.1 µM | TGI (IGROV1 ovarian): 17.2 µM | TGI (K-562 leukemia): > 37.7 µM | TGI (KM12 colon): 13.5 µM | TGI (KM20L2 colon): 22.7 µM | TGI (LOX IMVI melanoma): 6.41 µM | TGI (LXFL 529 NSCLC): 19 µM | TGI (M14 melanoma): 21.2 µM | TGI (MALME-3M melanoma): 19.5 µM | TGI (MCF7 breast): 16 µM | TGI (MDA-MB-231 breast): 4.81 µM | TGI (MDA-MB-435): 17.1 µM | TGI (MDA-N): 15 µM | TGI (MOLT-4 leukemia): 9.56 µM | TGI (NCI-H226 lung): 23.6 µM | TGI (NCI-H23 lung): 17.3 µM | TGI (NCI-H460 lung): 11.4 µM | TGI (NCI-H522 lung): 18.8 µM | TGI (NCI/ADR-RES ovarian): 12.6 µM | TGI (OVCAR-3 ovarian): 27.8 µM | TGI (OVCAR-4 ovarian): 9.63 µM | TGI (OVCAR-5 ovarian): 19.9 µM | TGI (OVCAR-8 ovarian): 16.8 µM | TGI (PC-3 prostate): 12.1 µM | TGI (RPMI-8226 leukemia): 24.6 µM | TGI (RXF 393 renal): 14.3 µM | TGI (SF-268 CNS): 20.7 µM | TGI (SF-295 CNS): 15.3 µM | TGI (SF-539 CNS): 15.6 µM | TGI (SK-MEL-2 melanoma): 22.6 µM | TGI (SK-MEL-28 melanoma): 23.4 µM | TGI (SK-MEL-5 melanoma): 12.2 µM | TGI (SK-OV-3 ovarian): 29.7 µM | TGI (SN12C renal): 23.9 µM | TGI (SNB-19 CNS): 31.8 µM | TGI (SNB-75 CNS): 32.1 µM | TGI (SNB-78 CNS): 31.7 µM | TGI (SR leukemia): 16.4 µM | TGI (SW-620 colon): 15.6 µM | TGI (T-47D breast): 27.1 µM | TGI (TK-10 renal): 31.9 µM | TGI (U251 CNS): 16.2 µM | TGI (UACC-257 melanoma): 22.2 µM | TGI (UACC-62 melanoma): 19.7 µM | TGI (UO-31 renal): 13.8 µM

CN(C)CCNC(=O)C1COc2cc(-c3cc(=O)c4ccccc4o3)ccc2O1 (configuration not stated)
TGI (786-0 renal): 36.3 µM | TGI (A498 renal): 33.7 µM | TGI (A549 NSCLC): 35.5 µM | TGI (ACHN renal): 33.1 µM | TGI (CAKI-1 renal): 38.3 µM | TGI (CCRF-CEM leukemia): > 100 µM | TGI (COLO 205 colon): 31.7 µM | TGI (DLD-1 colon): > 100 µM | TGI (DMS 273 small cell lung): 36.3 µM | TGI (EKVX NSCLC): > 100 µM | TGI (HCC-2998 colon): > 100 µM | TGI (HCT-116 colon): 29.6 µM | TGI (HCT-15 colon): > 100 µM | TGI (HL-60(TB) leukemia): 58.9 µM | TGI (HOP-18 NSCLC): 56 µM | TGI (HOP-62 NSCLC): > 100 µM | TGI (HOP-92 NSCLC): > 100 µM | TGI (HT29 colon): 34.6 µM | TGI (IGROV1 ovarian): 48.3 µM | TGI (K-562 leukemia): > 100 µM | TGI (KM20L2 colon): 56.5 µM | TGI (LOX IMVI melanoma): 38.3 µM | TGI (M14 melanoma): 32 µM | TGI (M19-MEL melanoma): > 100 µM | TGI (MALME-3M melanoma): 36.2 µM | TGI (MOLT-4 leukemia): 40.7 µM | TGI (NCI-H226 lung): 49 µM | TGI (NCI-H23 lung): > 100 µM | TGI (NCI-H460 lung): > 100 µM | TGI (NCI-H522 lung): 31 µM | TGI (OVCAR-3 ovarian): 43.7 µM | TGI (OVCAR-4 ovarian): 33.2 µM | TGI (OVCAR-5 ovarian): > 100 µM | TGI (OVCAR-8 ovarian): 70.1 µM | TGI (RPMI-8226 leukemia): 85.1 µM | TGI (RXF 393 renal): 38.8 µM | TGI (SF-268 CNS): 50.9 µM | TGI (SF-295 CNS): 93.6 µM | TGI (SF-539 CNS): 32.9 µM | TGI (SK-MEL-28 melanoma): 36 µM | TGI (SK-MEL-5 melanoma): 28.8 µM | TGI (SK-OV-3 ovarian): 53.8 µM | TGI (SN12C renal): 78.8 µM | TGI (SNB-19 CNS): 57.8 µM | TGI (SNB-75 CNS): 43.1 µM | TGI (SNB-78 CNS): 57.8 µM | TGI (SR leukemia): 39.5 µM | TGI (SW-620 colon): 44.5 µM | TGI (TK-10 renal): 75.9 µM | TGI (U251 CNS): 40.3 µM | TGI (UACC-257 melanoma): 34.7 µM | TGI (UACC-62 melanoma): 34.9 µM | TGI (UO-31 renal): > 100 µM

O=C(Nc1ccccc1SC(/C=C/NNC1=NC(c2ccccc2)C(c2ccccc2)=NN1)c1ccccc1)c1ccc(Cl)cc1Cl (configuration not stated)
TGI (786-0 renal): > 100 µM | TGI (A498 renal): > 100 µM | TGI (A549 NSCLC): > 100 µM | TGI (ACHN renal): > 100 µM | TGI (CCRF-CEM leukemia): > 100 µM | TGI (COLO 205 colon): > 100 µM | TGI (DLD-1 colon): > 100 µM | TGI (DMS 114 small cell lung): > 100 µM | TGI (DMS 273 small cell lung): > 100 µM | TGI (EKVX NSCLC): > 100 µM | TGI (HCC-2998 colon): > 100 µM | TGI (HCT-15 colon): > 100 µM | TGI (HL-60(TB) leukemia): > 100 µM | TGI (HOP-62 NSCLC): 73.5 µM | TGI (HT29 colon): > 100 µM | TGI (IGROV1 ovarian): > 100 µM | TGI (K-562 leukemia): > 100 µM | TGI (KM12 colon): > 100 µM | TGI (KM20L2 colon): > 100 µM | TGI (LOX IMVI melanoma): > 100 µM | TGI (M19-MEL melanoma): > 100 µM | TGI (MALME-3M melanoma): > 100 µM | TGI (NCI-H226 lung): 99.6 µM | TGI (NCI-H23 lung): 55.6 µM | TGI (NCI-H460 lung): > 100 µM | TGI (NCI-H522 lung): > 100 µM | TGI (OVCAR-3 ovarian): > 100 µM | TGI (OVCAR-4 ovarian): 94.8 µM | TGI (OVCAR-5 ovarian): > 100 µM | TGI (OVCAR-8 ovarian): > 100 µM | TGI (RPMI-8226 leukemia): > 100 µM | TGI (RXF 393 renal): > 100 µM | TGI (SF-268 CNS): > 100 µM | TGI (SF-295 CNS): > 100 µM | TGI (SF-539 CNS): 60.2 µM | TGI (SK-MEL-2 melanoma): 45.6 µM | TGI (SK-MEL-28 melanoma): > 100 µM | TGI (SK-MEL-5 melanoma): > 100 µM | TGI (SK-OV-3 ovarian): > 100 µM | TGI (SN12C renal): > 100 µM | TGI (SNB-19 CNS): > 100 µM | TGI (SNB-75 CNS): > 100 µM | TGI (SNB-78 CNS): > 100 µM | TGI (SW-620 colon): > 100 µM | TGI (TK-10 renal): > 100 µM | TGI (U251 CNS): 64.6 µM | TGI (UACC-257 melanoma): > 100 µM | TGI (UACC-62 melanoma): > 100 µM | TGI (UO-31 renal): 94.6 µM
